Assay results as given in patent publication US20180008572A1, “ANTIMETASTATIC COMPOSITION COMPRISING AT LEAST ONE FLAVANOL-TYPE COMPOUND” (priority 2014, published 2018).

Tests used:
melanoma cells = details: mice having received cancer cells by intravenous injection; cited from earlier work
SiHa-F3 cells [1] = test: Cell survival of SiHa-F3 tumor cells (crystal violet or MTT); assay type: cell-based, human; details: 1 μM
Experimental: Tests of cell migration and of survival of the treated cells were carried out with a model of super-invasive tumor cells obtained from a human cervical adenocarcinoma cell line, SiHa. The selection of the super-invasive SiHa-F3 cells (F3 on the graphs) was carried out after three consecutive invasions in vitro in permeable supports of Transwell® type coated with Matrigel® (Porporato P E et al., Cell Rep 2014, 8:754-766).
The cell survival, in order to exclude any toxic effect of the products tested, was estimated either on the basis of the quantification of the cells stained with crystal violet, or by measuring the mitochondrial succinate dehydrogenase (SDH) activity on the reduction of the MTT tetrazolium salt (suspension of formazan obtained in DMSO and measurement of absorbance at 570 nm).
Measurement of cell viability: 20 000 SiHa-F3 cells were seeded and treated with the indicated compounds overnight (16 h). The cells were then fixed for 3 min with methanol, stained with 0.23% crystal violet, and resuspended in DMSO in order to measure the absorbance at 595 nm (Victor X4 spectrophotometer, Perkin Elmer); or alternatively incubated for 3 h at 37° C. in a saturating solution of MTT in HBSS containing 10 mM of HEPES, and resuspended in DMSO in order to measure the absorbance at 630 nm (Victor X4 spectrophotometer, Perkin Elmer). […]

[2] = compared with epigallocatechin-3-gallate (EGCG); cited from earlier work
SiHa-F3 cells [3] = test: Level of reactive oxygen species (ROSs), DCFDA technique; assay type: cell-based, human; details: 1 μM, 60 minutes of pretreatment
Experimental: Moreover, an evaluation of the impact of the products tested on the level of reactive oxygen species (ROSs) observed was carried out according to the DCFDA technique after 60 minutes of pretreatment of the SiHa-F3 metastatic progenitor cells with the products tested. Measurement of total cell ROSs: 20 000 SiHa-F3 cells were seeded before being treated for 1 h with the compounds indicated. The cells were then incubated for 30 min at 37° C. in a 1 μM solution of H2-DCFDA (Invitrogen) in HBSS containing 10 mM of HEPES, before measurement of the absorbance at 535 nm (Victor X4 spectrophotometer, Perkin Elmer).

SiHa-F3 cells [4] = test: Tumor cell migration in a Boyden chamber; assay type: cell-based, human; details: for migration of the cancer cells (% of the control): Boyden chamber, 16 h, 100 nM to 1 mM
Experimental: Tests of cell migration and of survival of the treated cells were carried out with a model of super-invasive tumor cells obtained from a human cervical adenocarcinoma cell line, SiHa. The selection of the super-invasive SiHa-F3 cells (F3 on the graphs) was carried out after three consecutive invasions in vitro in permeable supports of Transwell® type coated with Matrigel® (Porporato P E et al., Cell Rep 2014, 8:754-766). […] The actual migration of the tumor cells was measured in a Boyden chamber with 50 000 cells per well and 0.15% of fetal bovine serum (FBS) used as chemoattractant. The pore diameters of the porous membrane separating the two compartments of the Boyden chamber were fixed at 8 μm. After 16 hours of migration, the cells were first fixed with methanol for 3 min and then stained with crystal violet. The culture medium used was DMEM 4.5 g/l of glucose, GlutaMAX®, 1% of a solution of penicillin/streptomycin and 10% of fetal bovine serum. Cell migration measurements: A 48-well reusable Boyden chamber (Neuroprobe) was used according to the manufacturer's instructions. Briefly, medium containing 0.15% of fetal bovine serum served as chemoattractant in the lower compartment, a polycarbonate membrane pierced with pores 8 μm in diameter separated the two compartments, and 50 000 SiHa-F3 cells in suspension in the presence of the indicated compounds were introduced into the upper compartment. The migration of the cells was quantified after an overnight period (16 h). The cells, having migrated, were fixed for 3 min in methanol, stained with 0.23% crystal violet for 30 min, and counted on photographs taken at a magnification of ×2.5 using an inverted-phase microscope (Axiovert and Mrc camera, Zeiss). […] Results were expressed as % of the control.

[5] = system: B16F10 murine melanoma cells; test: Model of experimental lung metastases: pretreated B16F10 cells injected into the caudal vein; assay type: in vivo, C57BL/6 mice; details: B16F10 cells pretreated with rotenone 10 nM + 10 μM compound, 14 days after injection
Description: The B16F10 tumor cells come from the ATCC collection. The male 6- or 7-week-old C57BL/6 mice were acquired from the Janvier laboratories, and the protocols were applied with the agreement of the UCL ethics committee and while adhering to Belgian laws relating to animal care. Model of experimental metastases: the B16F10 cells were pretreated with DMSO (0.5%, rotenone carrier, negative control) or rotenone (respiratory chain complex I inhibitor and mitochondrial superoxide inducer as described in Porporato P E et al., Cell Rep 2014, 8:754-766, positive control), alone or in combination with the indicated compounds for 6 h. The cells were then detached, counted and resuspended in a proportion of 10×10^6 cells/ml in HBSS without calcium or magnesium. 10^6 cells (i.e. 100 μl of the suspension) were then injected into the caudal vein of C57BL/6 mice. 14 days after injection of the cells, the mice were sacrificed, the lungs were isolated and the metastases (spots positive for melanin) were counted under a dissection microscope.

SMILES | melanoma cell invasion (melanoma cells) | survival of the tumor cells (SiHa-F3 cells [1]) | anti-proliferative effect [2] | reduction in the level of reactive oxygen species (ROSs) produced by the cells (SiHa-F3 cells [3]) | decrease in the number of tumor cells migrating from one compartment to the other of the Boyden cell (SiHa-F3 cells [4]; 1 μM, 16 hours of migration) | migration of the cancer cells (% of the control) (SiHa-F3 cells [4]) | formation of lung metastases [5]
Oc1cc(O)c2c(c1)O[C@H](c1ccc(O)c(O)c1)[C@@H](O)C2 [(+)-catechin] | inhibited | does not affect the survival of the tumor cells | negligible | no impact | does not however make it possible to significantly decrease | not the (+)-catechin, inhibit the migration of the cancer cells | 
O=C(O[C@@H]1Cc2c(O)cc(O)cc2O[C@@H]1c1cc(O)c(O)c(O)c1)c1cc(O)c(O)c(O)c1 [epigallocatechin gallate] |  |  |  |  |  | inhibit the migration of the cancer cells | not Epigallocatechin Gallate Reduces the Formation of Lung Metastases
